Source: PMC7562955 (Nature Communications, 2020)

Biological target: T1, TLR7 (Homo sapiens, UniProt Q9NYK1)
T1 sequence (Q9NYK1 27-1049): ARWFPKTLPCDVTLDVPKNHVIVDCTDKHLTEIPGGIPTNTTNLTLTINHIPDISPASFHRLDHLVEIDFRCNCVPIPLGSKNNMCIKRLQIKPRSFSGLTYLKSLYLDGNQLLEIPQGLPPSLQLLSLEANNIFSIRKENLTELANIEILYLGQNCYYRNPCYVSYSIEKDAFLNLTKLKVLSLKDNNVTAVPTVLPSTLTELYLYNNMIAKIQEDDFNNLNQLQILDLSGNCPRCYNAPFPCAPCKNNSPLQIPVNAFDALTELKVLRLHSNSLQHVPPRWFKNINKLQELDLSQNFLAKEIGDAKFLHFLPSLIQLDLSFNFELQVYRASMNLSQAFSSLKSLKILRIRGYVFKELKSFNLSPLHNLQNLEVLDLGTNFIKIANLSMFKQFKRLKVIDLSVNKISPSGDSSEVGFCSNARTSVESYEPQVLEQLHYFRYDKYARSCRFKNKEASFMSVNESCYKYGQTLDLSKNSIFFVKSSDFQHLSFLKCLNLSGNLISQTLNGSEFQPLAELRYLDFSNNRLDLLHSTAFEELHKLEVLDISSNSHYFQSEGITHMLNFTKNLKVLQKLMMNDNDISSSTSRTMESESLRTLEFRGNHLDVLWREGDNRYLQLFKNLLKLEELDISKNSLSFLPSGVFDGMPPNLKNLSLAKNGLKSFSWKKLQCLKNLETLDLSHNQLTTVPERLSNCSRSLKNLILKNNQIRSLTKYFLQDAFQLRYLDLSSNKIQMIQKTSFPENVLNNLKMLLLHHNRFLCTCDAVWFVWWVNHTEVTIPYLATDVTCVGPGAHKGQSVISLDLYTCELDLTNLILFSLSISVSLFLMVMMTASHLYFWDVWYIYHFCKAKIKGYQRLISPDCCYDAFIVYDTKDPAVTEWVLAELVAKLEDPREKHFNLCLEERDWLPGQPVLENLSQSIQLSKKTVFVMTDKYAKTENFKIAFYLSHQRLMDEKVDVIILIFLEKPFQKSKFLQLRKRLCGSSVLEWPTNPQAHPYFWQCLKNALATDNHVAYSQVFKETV
Test: TLR7 inhibition assay in primary human PBMCs (R848-induced IFN-α, ELISA)
Format: cell-based
Parameters: Human Peripheral Blood Mononuclear cells (hPBMCs) were collected from healthy adult donors; endogenous in cells; host or cells: primary human PBMCs (plasmacytoid DCs produce the IFN-α)
Conditions: for R848-induced IFN-α production: 2.5 μM; for Mean IFN-α / IFN-α: antagonist 2.5 μM; for Mean IFN-α: n = 3; for IFN-α: single replicate
Method: Human Peripheral Blood Mononuclear cells (hPBMCs) were collected from healthy adult donors. hPBMCs were cultured in round-bottom 96-well plates (BD Falcon, Durham, NC, USA) with a density of 5 × 10^5 cells/well. Plated cells were pretreated with DMSO or 2.5 μM inhibitors for 3 h and then stimulated by indicated ligands, such as R848 or TLR1/2 specific ligand Pam3CSK4 (Invivogen, HongKong, China), for 20 h in […] of RPMI 1640 medium (Gibco, Paisley, UK) supplemented with 10% FBS, Penicillin-Streptomycin-Glutamine (Gibco, Paisley, UK), 50 μM 2-ME medium at 37 °C in the presence of 5% CO2. Supernatants were collected to measure secreted cytokines by ELISA. Concentration of human IFN-α and TNF-α in the supernatants was measured with Verikine Human IFN-α Multi-Subtype Serum ELISA Kit (PBL Assay Science, Piscataway, NJ, USA) and Human TNF-α Uncoated ELISA (ThermoFisher Scientific, Carlsbad, CA, USA), respectively. This study was approved by the Research Ethics Committee of IMSUT (accession number: 30-100-B20190419).

Compound	R848-induced IFN-α production	Mean IFN-α (activator None) [pg/mL]	IFN-α (activator None) [pg/mL]	Mean IFN-α (activator R848 (200 nM)) [pg/mL]	IFN-α (activator R848 (200 nM)) [pg/mL]
CCOc1nc(C)c2nc(-c3cncc(F)c3)n(Cc3ccc(CN4C[C@@H]5C[C@H]4CN5C)cc3)c2n1 [Cpd-7]	completely blocked	0	0	0	0
CCOc1nc(N)c2nc(-c3cncc(F)c3)n(Cc3ccc(CN4C[C@@H]5C[C@H]4CN5C)cc3)c2n1 [Cpd-6]	completely blocked	0	0	0	0
